Our source for the IC50 values is US9598446B2, “Amino compounds for treatment of complement mediated disorders” (priority 2014, dated 2017).

The target in this experiment is Human factor D (Homo sapiens (Human), UniProt P00746). Kind of experiment: Human Factor D Assay. The format is biochemical.
[1] abbreviates: human factor D 80 nM, substrate Z-L-Lys-SBz1 and DTNB 100 μM each, pH 7.5, read-out: IC50.

Like-named read-outs stand apart in the source and are kept apart here.

Human factor D, sequence (P00746 26-253): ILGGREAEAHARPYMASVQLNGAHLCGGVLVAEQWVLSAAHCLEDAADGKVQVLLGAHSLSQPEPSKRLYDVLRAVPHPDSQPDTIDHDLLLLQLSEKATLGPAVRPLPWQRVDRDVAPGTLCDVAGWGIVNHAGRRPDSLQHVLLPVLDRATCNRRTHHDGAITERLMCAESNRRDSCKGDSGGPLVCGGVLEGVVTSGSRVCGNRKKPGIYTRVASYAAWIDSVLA
Experimental: Human factor D (purified from human serum, Complement Technology, Inc.) at 80 nM final concentration is incubated with test compound at various concentrations for 5 minutes at room temperature in 50 mM Tris, 1M NaCl, pH 7.5. A synthetic substrate Z-L-Lys-SBz1 and DTNB (Ellman's reagent) are added to final concentrations of 100 μM each. The increase in color is recorded at OD405 nm in a microplate in kinetic mode over 30 minutes with 30 second time points in a spectrofluorimeter. IC50 values are calculated by non-linear regression from the percentage of inhibition of complement factor D activity as a function of test compound concentration.

Regarding `CC(=O)c1cn(CC(=O)N2C[C@H](F)C[C@H]2C(=O)Nc2cccc3c2OC(C)(C)C3)c2ccc(Nc3cncnc3)cc12` [Compound 24, (2S,4R)-1-(2-(3-acetyl-5-(pyrimidin-5-ylamino)-1H-indol-1-yl)acetyl)-N-(2,2-dimethyl-2,3-dihydrobenzofuran-7-yl)-4-fluoropyrrolidine-2-carboxamide], the IC50 under setting [1] is < 1000 nM.

Take `NC(=O)c1nn(CC(=O)N2C[C@H](F)C[C@H]2C(=O)Nc2cccc(Cl)n2)c2ccc(Nc3cccnn3)cc12` [Compound 11, 1-(2-((2S,4R)-2-(6-chloropyridin-2-ylcarbamoyl)-4-fluoropyrrolidin-1-yl)-2-oxoethyl)-5-(pyridazin-3-ylamino)-1H-indazole-3-carboxamide]: under setting [1], the IC50 is < 1000 nM. On the same count and under the same terms, to `NC(=O)c1nn(CC(=O)N2C[C@H](F)C[C@H]2C(=O)Nc2cccc(-c3ccccc3Cl)c2F)c2ccc(Nc3cnc(C(F)(F)F)nc3)cc12` [Compound 14, 1-(2-((2S,4R)-2-(2′-chloro-2-fluorobiphenyl-3-ylcarbamoyl)-4-fluoropyrrolidin-1-yl)-2-oxoethyl)-5-(2-(trifluoromethyl)pyrimidin-5-ylamino)-1H-indazole-3-carboxamide] belongs < 1000 nM. `CNC(=O)[C@@H]1C[C@@H](F)CN1C(=O)Cn1cc(C(C)=O)c2cc(Nc3cncnc3)ccc21` [Compound 20, (2S,4R)-1-(2-(3-acetyl-5-(pyrimidin-5-ylamino)-1H-indol-1-yl)acetyl)-4-fluoro-N-methylpyrrolidine-2-carboxamide]: the IC50 was in the range of 1000 to 10000 nM.

For `CC(=O)c1cn(CC(=O)N2C[C@H](F)C[C@H]2C(=O)Nc2ccccc2-c2nc3ccccc3s2)c2ccc(Nc3cncnc3)cc12` [Compound 32, (2S,4R)-1-(2-(3-acetyl-5-(pyrimidin-5-ylamino)-1H-indol-1-yl)acetyl)-N-(2-(benzo[d]thiazol-2-yl)phenyl)-4-fluoropyrrolidine-2-carboxamide], the IC50 under setting [1] was > 10000 nM. Regarding `CC(=O)c1cn(CC(=O)N2C[C@H](F)C[C@H]2C(=O)NCc2cc(F)cc(Cl)c2)c2ccc(Nc3cncnc3)cc12` [Compound 18, (2S,4R)-1-(2-(3-acetyl-5-(pyrimidin-5-ylamino)-1H-indol-1-yl)acetyl)-N-(3-chloro-5-fluorobenzyl)-4-fluoropyrrolidine-2-carboxamide], under setting [1], the IC50 was < 1000 nM. In turn, `CC(=O)c1cn(CC(=O)N2C[C@H](F)C[C@H]2C(=O)NCc2nc3ccccc3s2)c2ccc(Nc3cncnc3)cc12` [Compound 16, (2S,4R)-1-(2-(3-acetyl-5-(pyrimidin-5-ylamino)-1H-indol-yl)acetyl)-N-(benzo[d]thiazol-2-ylmethyl)-4-fluoropyrrolidine-2-carboxamide] yielded a half-inhibitory concentration (IC50) of 1000 to 10000 nM. Turning to `CC(=O)c1cn(CC(=O)N2C[C@H](F)C[C@H]2C(=O)Nc2cncc(Cl)c2)c2ccc(Nc3cncnc3)cc12` [Compound 22, (2S,4R)-1-(2-(3-acetyl-5-(pyrimidin-5-ylamino)-1H-indol-1-yl)acetyl)-N-(5-chloropyridin-3-yl)-4-fluoropyrrolidine-2-carboxamide], the IC50 under setting [1] is < 1000 nM.

`CC(=O)c1cn(CC(=O)N2C[C@H](F)C[C@H]2C(=O)Nc2ccc3ccccc3c2)c2ccc(Nc3cncnc3)cc12` [Compound 46, (2S,4R)-1-(2-(3-acetyl-5-(pyrimidin-5-ylamino)-1H-indol-1-yl)acetyl)-4-fluoro-N-(naphthalen-2-yl)pyrrolidine-2-carboxamide]: under setting [1], the IC50 was < 1000 nM.

Consider `CC(=O)c1cn(CC(=O)N2C[C@H](F)C[C@H]2C(=O)NC2CCN(c3ccn(C)n3)C2=O)c2ccc(Nc3cncnc3)cc12` (stereo partly drawn) [Compound 64, (2S,4R)-1-(2-(3-acetyl-5-(pyrimidin-5-ylamino)-1H-indol-1-yl)acetyl)-4-fluoro-N-(1-(1-methyl-1H-pyrazol-3-yl)-2-oxopyrrolidin-3-yl)pyrrolidine-2-carboxamide], for which, under setting [1], the IC50 was < 1000 nM. Turning to `CC(=O)c1cn(CC(=O)N2C[C@H](F)C[C@H]2C(=O)NCc2cccc(Cl)c2F)c2cc(N(CC(=O)N3C[C@H](F)C[C@H]3C(=O)NCc3cccc(Cl)c3F)S(C)(=O)=O)ccc12` [Compound 1, (2S,4R)-1-(2-(N-(3-acetyl-1-(2-((2S,4R)-2-(3-chloro-2-fluorobenzyl-carbamoyl)-4-fluoropyrrolidin-1-yl)-2-oxoethyl)-1H-indol-6-yl)methylsulfonamido)acetyl)-N-(3-chloro-2-fluorobenzyl)-4-fluoropyrrolidine-2-carboxamide], the IC50 lay in the range of 1000 to 10000 nM. `CC(=O)c1cn(CC(=O)N2C[C@H](F)C[C@H]2C(=O)NC2CCCN(c3cnn(C)c3)C2)c2ccc(Nc3cncnc3)cc12` (stereo partly drawn) [Compound 42, (2S,4R)-1-(2-(3-acetyl-5-(pyrimidin-5-ylamino)-1H-indol-1-yl)acetyl)-4-fluoro-N-(1-(1-methyl-1H-pyrazol-4-yl)piperidin-3-yl)pyrrolidine-2-carboxamide]: under setting [1], the IC50 was < 1000 nM. Same read-out and setting: to `N#Cc1cnc(Nc2ccc3c(c2)c(C(N)=O)nn3CC(=O)N2C[C@H](F)C[C@H]2C(=O)Nc2cccc(-c3ccccc3Cl)c2F)nc1` [Compound 13, 1-(2-((2S,4R)-2-(2′-chloro-2-fluorobiphenyl-3-ylcarbamoyl)-4-fluoropyrrolidin-1-yl)-2-oxoethyl)-5-(5-cyanopyrimidin-2-ylamino)-1H-indazole-3-carboxamide] belongs < 1000 nM.

Turning to `CC(=O)c1cn(CC(=O)N2C[C@H](F)C[C@H]2C(=O)Nc2cccc(O)n2)c2ccc(Nc3cncnc3)cc12` [Compound 68, (2S,4R)-1-(2-(3-acetyl-5-(pyrimidin-5-ylamino)-1H-indol-1-yl)acetyl)-4-fluoro-N-(6-hydroxypyridin-2-yl)pyrrolidine-2-carboxamide], the IC50 under setting [1] is < 1000 nM. The same measure, in the same setting: to `CC(=O)c1cn(CC(=O)N2C[C@H](F)C[C@H]2C(=O)Nc2cccc(Br)n2)c2ccc(Nc3cncnc3)cc12` [Compound 4, (2S,4R)-1-(2-(3-acetyl-5-(pyrimidin-5-ylamino)-1H-indol-1-yl)acetyl)-N-(6-bromopyridin-2-yl)-4-fluoropyrrolidine-2-carboxamide] belongs < 1000 nM. `CC(=O)c1cn(CC(=O)N2C[C@H](F)C[C@H]2C(=O)Nc2nnc(-c3ccccc3Cl)s2)c2ccc(Nc3cncnc3)cc12` [Compound 34, (2S,4R)-1-(2-(3-acetyl-5-(pyrimidin-5-ylamino)-1H-indol-1-yl)acetyl)-N-(5-(2-chlorophenyl)-1,3,4-thiadiazol-2-yl)-4-fluoropyrrolidine-2-carboxamide]: the IC50 fell in the range of 1000 to 10000 nM. In turn, `COc1cc(C)cc2c1OCCC2NC(=O)[C@@H]1C[C@@H](F)CN1C(=O)Cn1cc(C(C)=O)c2cc(Nc3cncnc3)ccc21` (stereo partly drawn) [Compound 54, (2S,4R)-1-(2-(3-acetyl-5-(pyrimidin-5-ylamino)-1H-indol-1-yl)acetyl)-4-fluoro-N-(8-methoxy-6-methylchroman-4-yl)pyrrolidine-2-carboxamide] yielded an IC50 of 1000 to 10000 nM.

As to `NC(=O)c1nn(CC(=O)N2C[C@H](F)C[C@H]2C(=O)Nc2cccc(-c3ccccc3Cl)c2F)c2ccc(Nc3cncnc3)cc12` [Compound 10, 1-(2-((2S,4R)-2-(2′-chloro-2-fluorobiphenyl-3-ylcarbamoyl)-4-fluoropyrrolidin-1-yl)-2-oxoethyl)-5-(pyrimidin-5-ylamino)-1H-indazole-3-carboxamide], the IC50 under setting [1] is < 1000 nM. Turning to `CC(=O)c1cn(CC(=O)N2C[C@H](F)C[C@H]2C(=O)Nc2ncc(Br)cn2)c2ccc(Nc3cncnc3)cc12` [Compound 44, (2S,4R)-1-(2-(3-acetyl-5-(pyrimidin-5-ylamino)-1H-indol-1-yl)acetyl)-N-(5-bromopyrimidin-2-yl)-4-fluoropyrrolidine-2-carboxamide], under setting [1], the IC50 is < 1000 nM. Still for that read-out and setting: to `CC(=O)c1cn(CC(=O)N2C[C@H](F)C[C@H]2C(=O)Nc2cccnc2)c2ccc(Nc3cncnc3)cc12` [Compound 31, (2S,4R)-1-(2-(3-acetyl-5-(pyrimidin-5-ylamino)-1H-indol-1-yl)acetyl)-4-fluoro-N-(pyridin-3-yl)pyrrolidine-2-carboxamide] belongs < 1000 nM; to `CC(=O)c1cn(CC(=O)N2C[C@H](F)C[C@H]2C(=O)Nc2ccc3ncsc3c2)c2ccc(Nc3cncnc3)cc12` [Compound 56, (2S,4R)-1-(2-(3-acetyl-5-(pyrimidin-5-ylamino)-1H-indol-1-yl)acetyl)-N-(benzo[d]thiazol-6-yl)-4-fluoropyrrolidine-2-carboxamide], < 1000 nM.

On to `CC(=O)c1cn(CC(=O)N2C[C@H](F)C[C@H]2C(=O)NC2CCc3c(F)ccc(F)c32)c2ccc(Nc3cncnc3)cc12` (stereo partly drawn) [Compound 51, (2S,4R)-1-(2-(3-acetyl-5-(pyrimidin-5-ylamino)-1H-indol-1-yl)acetyl)-N-(4,7-difluoro-2,3-dihydro-1H-inden-1-yl)-4-fluoropyrrolidine-2-carboxamide], for which the IC50 is 1000 to 10000 nM. As for `CC(=O)c1cn(CC(=O)N2C[C@H](F)C[C@H]2C(=O)Nc2nc(-c3cccc(Cl)c3)ns2)c2ccc(Nc3cncnc3)cc12` [Compound 60, (2S,4R)-1-(2-(3-acetyl-5-(pyrimidin-5-ylamino)-1H-indol-1-yl)acetyl)-N-(3-(3-chlorophenyl)-1,2,4-thiadiazol-5-yl)-4-fluoropyrrolidine-2-carboxamide], under setting [1], the IC50 was > 10000 nM. Still for that read-out and setting: to `CC(=O)c1cn(CC(=O)N2C[C@H](F)C[C@H]2C(=O)Nc2ccc(F)c(-c3nnc4n3CCCCC4)c2)c2ccc(Nc3cncnc3)cc12` [Compound 26, (2S,4R)-1-(2-(3-acetyl-5-(pyrimidin-5-ylamino)-1H-indol-1-yl)acetyl)-4-fluoro-N-(4-fluoro-3-(6,7,8,9-tetrahydro-5H-[1,2,4]triazolo[4,3-a]azepin-3-yl)phenyl)pyrrolidine-2-carboxamide] belongs < 1000 nM. Take `CC(=O)c1cn(CC(=O)N2C[C@H](F)C[C@H]2C(=O)NCc2cccc(Cl)c2)c2ccc(Nc3cncnc3)cc12` [Compound 19, (2S,4R)-1-(2-(3-acetyl-5-(pyrimidin-5-ylamino)-1H-indol-1-yl)acetyl)-N-(3-chlorobenzyl)-4-fluoropyrrolidine-2-carboxamide]: the IC50 under setting [1] was < 1000 nM.

Broadly, the IC50 is the concentration at which inhibition is half-maximal.
